This is an account of results in ChEMBL document CHEMBL1201862, “PubChem BioAssay data set” (2004).

Test [1] relates to BJ. As to the kind of experiment: cells. Type of test: functional, cell-based. Conditions: Homo sapiens.
In test [2] the test system is BJ. As to the kind of experiment: BJ-TERT fibroblast viability loss – cell-based, RAS-independent, luminescence, dose response (AID 1933). Type of test: functional. Conditions: Homo sapiens.
The nature of test [3]: Luminescence-based dose response cell-based high throughput screening assay for cytotoxic compounds using the IEC-6 intestinal epithelial cell line. [Related pubchem assays: 1858 (Summary AID.), 1825 (Counterscreen.), 1907 (Confirmation screen.)]. Type of test: functional. (In general: Counterscreens check selectivity or assay interference.)
The test system of test [4] is INS1. As to the kind of experiment: INS-1E survival protection against cytokine death – cell-based, luminescence, retest, dose response (AID 449756).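 Also: cell death triggered by IL-1 beta plus TNF-alpha plus IFN-gamma mixture; protective hits raise ATP signal compared with cytokine alone wells.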 It counts as functional. The settings on record: Rattus norvegicus.
Test [5] deals with Paired box protein Pax-8 (Homo sapiens, UniProt Q06710). As to the kind of experiment: PAX8 transcriptional activity inhibition in RMG-I – RMG-I cells, luciferase, cherry-pick, dose response (AID 687027).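 Also: luciferase reporter driven by Pax8 target thyroperoxidase promoter measured by SteadyGlo luminescence.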 Type of test: functional, cell-based.
Sequence of Paired box protein Pax-8 (Q06710 whole entry): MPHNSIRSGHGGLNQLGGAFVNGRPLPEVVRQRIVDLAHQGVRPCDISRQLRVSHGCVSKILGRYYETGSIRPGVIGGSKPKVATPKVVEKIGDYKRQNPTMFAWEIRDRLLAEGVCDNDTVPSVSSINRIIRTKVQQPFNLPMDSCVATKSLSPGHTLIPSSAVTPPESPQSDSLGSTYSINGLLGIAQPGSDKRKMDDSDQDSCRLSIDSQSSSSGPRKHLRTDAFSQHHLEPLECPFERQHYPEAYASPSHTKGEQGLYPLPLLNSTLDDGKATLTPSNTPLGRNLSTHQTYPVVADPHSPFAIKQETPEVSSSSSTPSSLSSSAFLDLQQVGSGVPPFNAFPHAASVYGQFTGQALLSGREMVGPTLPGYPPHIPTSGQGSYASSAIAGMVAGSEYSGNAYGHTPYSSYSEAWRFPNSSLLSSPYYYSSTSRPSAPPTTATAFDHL
For test [6], the system named is BJ. As to the kind of experiment: growth inhibition of engineered Ras-driven BJ cells – cell-based, alamar blue fluorescence, cherrypicked samples, dose response (AID 2631).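 Also: confirmatory dose-response assay in RAS-dependent BJ fibroblasts engineered with TERT, LT and ST, with cytotoxicity read by fluorescence.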 Type of test: functional. Conditions: Homo sapiens. For orientation: Alamar Blue is a resazurin reagent that responds to reducing activity.
The nature of test [7]: decrease of insulin promoter-GFP reporter – imaging, high-content screening, mouse beta cells (AID 1628). Type of test: functional. Conditions: MIN6.
The nature of test [8]: DRD fibroblast viability loss – cell-based, non-viral oncogenic, luminescence, dose response (AID 1934). Type of test: functional. Conditions: Homo sapiens.
Test [9] can be described thus: MIN6 cell viability loss – mouse insulinoma, cytotoxicity control, dose response (AID 2122).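 Also: confirmatory high-throughput counterscreen run to flag cytotoxic compounds.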 It counts as functional.
Test [10] relates to BJ. As to the kind of experiment: BJ-TERT-LT-ST fibroblast viability loss – cell-based, RAS-independent, luminescence, dose response (AID 1935).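 Also: BJ fibroblasts immortalized with TERT plus LT and ST oncogenes.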 The settings on record: Homo sapiens. It counts as functional.
Test [11] concerns the target 14-3-3 protein gamma (Homo sapiens, UniProt P61981). As to the kind of experiment: modulators of 14-3-3 gamma client binding – dose response (AID 711). Type of test: functional.
The nature of test [12]: M. tuberculosis growth inhibition, HTS (AID 449762). Type of test: functional.
Test [13] has as its target E3 ubiquitin-protein ligase Mdm2 (Homo sapiens, UniProt Q00987). As to the kind of experiment: MDM2-luc reporter signal enhancers, multi-concentration potency testing, MDM2 ubiquitin-protein ligase inhibitor program, whole-cell format, luminescence detection, 384-well microplate (AID 1394).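 Also: MDM2 E3 inhibitors raise luminescence so EC50 is for signal enhancement.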 It counts as functional.
Test [14] concerns the target T1, High affinity choline transporter 1 (Homo sapiens, UniProt Q9GZV3).
T1 sequence (Q9GZV3 whole entry): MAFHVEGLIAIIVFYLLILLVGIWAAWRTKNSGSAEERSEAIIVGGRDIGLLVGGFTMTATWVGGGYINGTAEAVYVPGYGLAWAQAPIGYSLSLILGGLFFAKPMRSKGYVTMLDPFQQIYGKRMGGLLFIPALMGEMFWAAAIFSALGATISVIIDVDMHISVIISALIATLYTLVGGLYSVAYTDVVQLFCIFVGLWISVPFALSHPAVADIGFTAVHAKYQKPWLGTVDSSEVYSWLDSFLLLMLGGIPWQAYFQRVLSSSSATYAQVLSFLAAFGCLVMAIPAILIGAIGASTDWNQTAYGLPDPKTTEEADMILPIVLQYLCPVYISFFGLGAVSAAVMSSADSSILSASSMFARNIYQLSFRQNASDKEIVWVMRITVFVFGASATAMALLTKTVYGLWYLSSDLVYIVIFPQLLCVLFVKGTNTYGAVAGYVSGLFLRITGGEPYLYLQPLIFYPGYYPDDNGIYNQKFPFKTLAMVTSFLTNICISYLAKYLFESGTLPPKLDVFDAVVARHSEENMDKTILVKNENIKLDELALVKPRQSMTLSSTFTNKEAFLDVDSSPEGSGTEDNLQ
As to the kind of experiment: human choline transporter blockers, potency – cell-based, 5-point CRC, membrane potential dye, dose response (AID 504840). Type of test: functional.

Test [15] concerns the target T1, High affinity choline transporter 1. As to the kind of experiment: human choline transporter blockers, potency – cell-based, 10-point CRC, membrane potential dye, dose response (AID 588401).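 Also: membrane potential dye fluorescence of choline-evoked depolarization via CHT.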 It counts as functional.
In test [16] the test system is Vero. As to the kind of experiment: Vero cell viability after compound exposure – synthesized analogs, set II, cytotoxicity control for West Nile virus antiviral project, SAR follow-up (AID 2402). It counts as functional. Conditions: Chlorocebus sabaeus.
For test [17], the target named is Estrogen receptor (Homo sapiens, UniProt P03372). As to the kind of experiment: ERα coactivator recruitment enhancers – biochemical, TR-FRET, ERα LBD, dose response (AID 737). (Time-resolved FRET reads energy transfer from a long-lived donor to a nearby acceptor.)
Sequence of Estrogen receptor (P03372 whole entry, the tested form may be a part): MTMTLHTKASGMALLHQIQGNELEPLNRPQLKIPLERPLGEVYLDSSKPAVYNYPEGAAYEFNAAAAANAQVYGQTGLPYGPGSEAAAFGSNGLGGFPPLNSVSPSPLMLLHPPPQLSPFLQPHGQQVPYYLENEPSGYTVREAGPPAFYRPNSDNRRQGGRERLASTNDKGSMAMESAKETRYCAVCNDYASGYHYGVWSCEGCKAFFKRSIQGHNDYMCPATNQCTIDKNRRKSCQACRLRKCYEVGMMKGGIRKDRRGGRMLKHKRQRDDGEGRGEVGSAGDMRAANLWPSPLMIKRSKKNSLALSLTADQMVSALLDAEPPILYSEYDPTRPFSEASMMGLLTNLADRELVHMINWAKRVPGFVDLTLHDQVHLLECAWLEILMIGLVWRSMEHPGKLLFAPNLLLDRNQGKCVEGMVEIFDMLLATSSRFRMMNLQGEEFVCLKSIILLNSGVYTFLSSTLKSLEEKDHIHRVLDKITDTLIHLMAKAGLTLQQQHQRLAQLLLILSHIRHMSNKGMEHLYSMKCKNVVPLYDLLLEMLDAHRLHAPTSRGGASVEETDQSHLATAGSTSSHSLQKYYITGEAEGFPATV
The target of test [18] is Mucolipin-3 (Homo sapiens, UniProt Q8TDD5). As to the kind of experiment: Dose response cell-based high-throughput screening assay for agonists of the transient receptor potential channel ML3 (TRPML3). [Related pubchem assays: 1526, 1424, 1448 ]. Type of test: functional.
Sequence of Mucolipin-3 (Q8TDD5 whole entry): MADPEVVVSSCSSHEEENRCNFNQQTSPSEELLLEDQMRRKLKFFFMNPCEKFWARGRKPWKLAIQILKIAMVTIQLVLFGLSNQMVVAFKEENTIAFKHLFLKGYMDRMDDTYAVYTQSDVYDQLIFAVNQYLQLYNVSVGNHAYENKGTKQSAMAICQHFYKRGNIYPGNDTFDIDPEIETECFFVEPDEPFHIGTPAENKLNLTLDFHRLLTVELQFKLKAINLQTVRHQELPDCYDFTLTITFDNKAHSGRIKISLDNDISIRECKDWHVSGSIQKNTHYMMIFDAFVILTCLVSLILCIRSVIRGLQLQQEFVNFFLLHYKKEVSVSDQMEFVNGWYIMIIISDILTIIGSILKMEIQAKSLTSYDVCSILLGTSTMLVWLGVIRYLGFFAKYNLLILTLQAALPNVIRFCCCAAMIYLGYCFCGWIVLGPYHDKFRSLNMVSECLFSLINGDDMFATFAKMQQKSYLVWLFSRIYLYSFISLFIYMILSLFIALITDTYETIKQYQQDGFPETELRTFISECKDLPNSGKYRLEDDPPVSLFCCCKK
Test [19] addresses Ion channel NompC (Danio rerio, UniProt Q7T1G6). As to the kind of experiment: Fluorescence counterscreen assay for TRPML3 agonists: dose response cell-based high-throughput screening assay to identify agonists of the transient receptor potential channel N1 (TRPN1). [Related pubchem assays: 1526, 1424, 1448 ]. It counts as functional.

Activity calls are given as the source filed them. Bounds are passed on as bounds.

Sequence of Ion channel NompC (Q7T1G6 whole entry): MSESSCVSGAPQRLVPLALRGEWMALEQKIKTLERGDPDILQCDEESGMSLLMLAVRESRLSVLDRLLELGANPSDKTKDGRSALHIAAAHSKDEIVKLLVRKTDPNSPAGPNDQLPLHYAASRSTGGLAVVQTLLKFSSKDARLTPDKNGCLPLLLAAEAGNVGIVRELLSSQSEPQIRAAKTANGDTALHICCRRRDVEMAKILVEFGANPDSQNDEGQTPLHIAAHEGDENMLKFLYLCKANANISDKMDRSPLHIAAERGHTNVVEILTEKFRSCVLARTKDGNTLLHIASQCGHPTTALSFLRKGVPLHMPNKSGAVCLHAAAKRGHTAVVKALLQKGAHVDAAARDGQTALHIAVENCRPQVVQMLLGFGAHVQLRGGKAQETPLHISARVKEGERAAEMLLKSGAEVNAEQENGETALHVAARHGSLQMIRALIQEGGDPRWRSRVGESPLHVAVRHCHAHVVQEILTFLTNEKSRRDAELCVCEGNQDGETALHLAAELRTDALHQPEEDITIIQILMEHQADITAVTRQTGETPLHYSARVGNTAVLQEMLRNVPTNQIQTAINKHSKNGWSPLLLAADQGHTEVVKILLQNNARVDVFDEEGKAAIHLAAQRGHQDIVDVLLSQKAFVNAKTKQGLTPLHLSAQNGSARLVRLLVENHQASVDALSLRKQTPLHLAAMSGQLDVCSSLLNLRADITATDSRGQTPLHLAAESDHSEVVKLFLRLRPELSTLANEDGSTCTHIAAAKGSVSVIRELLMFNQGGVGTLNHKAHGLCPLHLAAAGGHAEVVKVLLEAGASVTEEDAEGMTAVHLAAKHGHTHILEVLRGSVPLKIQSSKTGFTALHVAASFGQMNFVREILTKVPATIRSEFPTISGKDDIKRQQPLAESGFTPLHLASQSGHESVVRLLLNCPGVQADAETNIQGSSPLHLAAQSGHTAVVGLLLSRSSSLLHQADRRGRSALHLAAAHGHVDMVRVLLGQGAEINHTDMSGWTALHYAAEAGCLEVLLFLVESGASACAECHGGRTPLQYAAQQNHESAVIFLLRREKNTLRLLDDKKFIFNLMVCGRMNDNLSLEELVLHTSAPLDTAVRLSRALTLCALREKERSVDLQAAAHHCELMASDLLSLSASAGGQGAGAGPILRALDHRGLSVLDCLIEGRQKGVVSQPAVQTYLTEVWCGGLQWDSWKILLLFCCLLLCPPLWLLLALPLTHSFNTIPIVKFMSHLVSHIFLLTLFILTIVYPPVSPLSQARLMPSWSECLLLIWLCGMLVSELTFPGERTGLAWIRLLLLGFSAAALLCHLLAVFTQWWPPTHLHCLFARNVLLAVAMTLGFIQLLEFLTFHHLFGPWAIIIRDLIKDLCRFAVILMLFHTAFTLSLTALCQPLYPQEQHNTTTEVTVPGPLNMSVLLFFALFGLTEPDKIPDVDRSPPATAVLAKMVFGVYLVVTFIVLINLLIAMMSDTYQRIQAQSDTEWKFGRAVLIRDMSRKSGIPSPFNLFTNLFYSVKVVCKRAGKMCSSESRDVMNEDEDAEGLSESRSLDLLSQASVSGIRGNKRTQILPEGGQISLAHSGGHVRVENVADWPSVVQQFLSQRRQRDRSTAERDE
Sequence of 14-3-3 protein gamma (P61981 whole entry): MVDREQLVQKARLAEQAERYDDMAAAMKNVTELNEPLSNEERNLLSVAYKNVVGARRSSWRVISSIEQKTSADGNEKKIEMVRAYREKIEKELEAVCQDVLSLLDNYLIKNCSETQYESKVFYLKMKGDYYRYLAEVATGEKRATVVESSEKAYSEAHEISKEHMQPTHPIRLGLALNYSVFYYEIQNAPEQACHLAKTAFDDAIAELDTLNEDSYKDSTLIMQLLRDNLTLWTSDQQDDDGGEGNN
Sequence of E3 ubiquitin-protein ligase Mdm2 (Q00987 whole entry): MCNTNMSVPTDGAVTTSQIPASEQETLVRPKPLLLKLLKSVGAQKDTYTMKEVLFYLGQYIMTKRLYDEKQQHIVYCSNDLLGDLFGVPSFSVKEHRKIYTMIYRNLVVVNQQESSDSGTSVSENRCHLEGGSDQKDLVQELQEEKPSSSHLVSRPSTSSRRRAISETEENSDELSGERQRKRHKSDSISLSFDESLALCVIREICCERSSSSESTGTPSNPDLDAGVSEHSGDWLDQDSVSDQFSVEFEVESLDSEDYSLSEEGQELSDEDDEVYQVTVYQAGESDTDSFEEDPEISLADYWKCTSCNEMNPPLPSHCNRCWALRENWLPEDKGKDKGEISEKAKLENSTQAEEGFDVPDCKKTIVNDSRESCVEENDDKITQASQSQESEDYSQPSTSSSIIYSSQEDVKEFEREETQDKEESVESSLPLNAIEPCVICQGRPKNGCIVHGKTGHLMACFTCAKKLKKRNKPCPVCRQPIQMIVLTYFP

For orientation: EC50 means the midpoint of the concentration-response curve. The term IC50 denotes the concentration at which inhibition is half-maximal. As usually defined, the AC50 is the concentration at which the activity in the assay is half-maximal. On to `CCOc1ccc(C(=O)c2cc([N+](=O)[O-])ccc2N2CCOCC2)cc1`, for which the EC50 is 632 nM (active) in [1]; 406 nM (active) in [2]; < 104 nM (active) in test [6]; 358 nM (active) in test [8]; 401 nM (inconclusive) in test [10]. Besides, the IC50 in test [3] was 55.8 nM (active); in test [7] it was 263 nM (active); in [9] it was < 250 nM (active). Moreover, the AC50 in test [4] is 775 nM (active); in [5], < 260 nM (active).

As for `CN1C(=O)C(Cc2c[nH]c3ccccc23)C(=O)N(C)C1=O`, the IC50 in test [11] is recorded as > 50 µM (not active).

As to `CCOC(=O)c1ccc(NC(=O)CSc2ccc(-c3cccnc3)nn2)cc1`, the IC50 in test [12] is > 100 µM (active).

For `CCOC(=O)c1sc(=S)n(-c2ccccc2)c1N(C(C)=O)C(C)=O`, the EC50 in test [13] is listed as 290 nM (not active). Moreover, the results for the IC50 in test [14] and in test [15] were 8.98 µM (active) and 5.01 µM (active), respectively.

Broadly, the CC50 is the concentration giving 50% cytotoxicity. Take `CC1CC(C)CN(C(=O)CSc2nc3ccccc3c(=O)n2-c2ccc(F)cc2)C1` (centres undefined): in test [16], the CC50 was > 100 µM (active).

As to `COCCCn1c2nc3ccccc3nc2c2c(=O)n(-c3ccccc3OC)c(C)nc21`, the EC50 in [17] is listed as 12.7 µM (not active).

Turning to `Cc1ccc(S(=O)(=O)N(C)c2cc(S(=O)(=O)N3CCC(C)CC3)c(C)cc2C)cc1`, the results for the EC50 in test [18] and in [19] were 2.06 µM (active) and > 29.9 µM (not active), respectively.
